Read-outs that look alike come from different tables or passages of the source.
Tests used:
human CB1 receptors = target: T1, human CB1 receptors (Homo sapiens, UniProt P21554); assay: cAMP assay in HEK-293 cells, hCB1 agonist; format: cell-based; details: inhibition of forskolin-stimulated cAMP, HEK-293 cells
T1 construct: (cDNA clone) CNR01L000
Description: (§1) Stable, HEK-293-derived cell lines that recombinantly express hCBI or hCB2 were established. In brief, the clone hCB1 (CNR IL) or hCB2 (CNR2) was transfected into human embryonic kidney cells (HEK-293) using Lipofectamine 2000 (Gibco, Cat#11668-019) according to the manufacturer's protocol. Transfected clones were isolated by single colony purification and clones were screened for receptor expression using a whole cell, ^3H—CP 55,940 radioligand binding assay. HEK-293 stable cells were maintained in Dulbecco's modified Eagles medium (DMEM) containing 10% fetal bovine serum, 2 mM L-glutamine and 0.5 mg/mL G-418.
(§2) Functional assays which monitor G-protein coupled receptor or downstream cellular responses can be used to characterize potential CB1 receptor and/or CB2 receptor agonist or antagonist activities. Direct activation (or inhibition of activation) can be monitored using a GTPγS assay (membrane-based assay) or cAMP assay (whole cell-based assay).
(§3) cAMP assays were performed in HEK-293 cells stably expressing human CB1 or CB2 receptors. For cannabinoid receptor functional assays measuring agonist effects on cellular cAMP levels, monolayers of cultured cells were harvested with enzyme-free PBS-based cell dissociation buffer (Gibco, Cat#13151-04). Cells suspensions were centrifuged and the cells were washed once with PBS, were centrifuged again, and the cells were re-suspended in HBSS (Hank's Balanced Salt Solution, Cellgro, Cat #21-022-CV) solution containing 10 mM HEPES and 0.1% fatty acid free BSA (Sigma, Cat #A0281). Cell suspensions were prepared at 1,500,000 cells per ml. Stock solutions of test substances (10 mM) in DMSO were diluted to 1 mM using 30% DMSO as diluent. Test substances of solutions (1 mM) were further diluted down to 3× of final assay concentrations in the above HBSS buffer containing 0.1% BSA in the presence of 90 uM forskolin (Sigma Cat#F6886). To perform the assay, 20 uL of cell suspension (1,500,000 cells/mL) were added to each well in 96 well plate and treated with 10 uL test substance solution diluted as described above. Cells and compounds were incubated at 37° C. for 30 minutes. Cells were lysed and cAMP concentration was measured using DiscoveRx −XS+ cAMP assay kit (DiscoveRx Corporation Ltd., Fremont, Calif., USA, Cat #90-0075-03), following the manufacturer's protocol. GraphPad Prism software was used to calculate EC50 values using sigmoidal dose response curve fitting. The maximal amount of cAMP produced by forskolin was defined as 100%. CB1 or CB2 agonists reduced forskolin-stimulated cAMP signaling. The EC50 value of an agonist compound was defined as the concentration at which 50% of the forskolin-stimulated cAMP synthesis was inhibited.

human CB2 receptors = target: T2, human CB2 receptors (Homo sapiens, UniProt P34972); assay: cAMP assay in HEK-293 cells, hCB2 agonist; format: cell-based; details: inhibition of forskolin-stimulated cAMP, HEK-293 cells; for EC50: read-out: hCB2 EC50 (cAMP ag)
T2 construct: (cDNA clone) CNR0200000
T2 sequence (P34972 whole entry): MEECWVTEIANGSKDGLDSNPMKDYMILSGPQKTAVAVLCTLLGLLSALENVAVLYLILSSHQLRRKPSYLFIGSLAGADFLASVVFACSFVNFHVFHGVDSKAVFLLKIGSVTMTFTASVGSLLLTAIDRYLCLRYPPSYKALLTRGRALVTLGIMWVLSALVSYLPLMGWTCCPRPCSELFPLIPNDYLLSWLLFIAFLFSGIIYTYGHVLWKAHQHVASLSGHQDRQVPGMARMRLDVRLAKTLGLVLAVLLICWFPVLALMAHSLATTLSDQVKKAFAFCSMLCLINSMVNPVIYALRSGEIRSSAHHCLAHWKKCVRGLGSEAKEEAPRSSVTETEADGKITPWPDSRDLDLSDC
Method: as §2
as §3, with “For cannabinoid receptor functional assays measuring agonist effects on cellular cAMP levels, monolayers of cultured cells were harvested with enzyme-free PBS-based cell dissociation buffer (Gibco, Cat#13151-04).” left out, “100%.” for “100%. CB1 or CB2 agonists reduced forskolin-stimulated cAMP signaling. The EC50 value of an agonist compound was defined as the concentration at which 50% of the forskolin-stimulated cAMP synthesis was inhibited.”

[1] = target: T3, recombinant human cannabinoid receptor CB2 (Homo sapiens, UniProt P34972); assay: Cannabinoid receptor radioligand binding assay, [3H]-CP 55,940 displacement, hCB2
T3 construct: (cDNA clone) CNR0200000
T3 sequence (P34972 whole entry): as above
Method: (§4) Membranes were isolated from transfected cells as follows. Monolayers of cultured cells were washed twice with phosphate-buffered saline (PBS). […] Homogenates were centrifuged 10 minutes at 1000×g at 4° C. The supernatant was collected and was centrifuged for 1 hour at 40,000×g. The supernatant was then decanted and the resulting pellet was re-suspended in 20 mM HEPES, pH 7.4, 5 mM MgCl2, 1 mM EDTA, 10% sucrose with complete cocktail protease inhibitors. Protein concentration of membrane suspensions were measured by Bradford Protein Assay using bovine serum albumin as the standard (BioRad catalog #500-0006). Protein concentrations of membrane suspensions were adjusted with the final buffer in the range of 5 to 10 mg/mL and were stored at −80° C. until further use.
A rapid filtration technique using Millipore FB filter plates (Catalog #MADVNOB) and filtration apparatus (Millipore system Catalog MAVM0960R) with vacuum aspiration was used to harvest and rinse labeled membranes (8 times with 0.2 mL of chilled binding buffer). […] Binding data were analyzed using GraphPad Prism (GraphPad Software, Inc. San Diego, Calif.).

[2] = target: T4, recombinant human cannabinoid receptor CB1 (Homo sapiens, UniProt P21554); assay: Cannabinoid receptor radioligand binding assay, [3H]-CP 55,940 displacement, hCB1; details: displacement of 0.5 nM [3H]-CP 55,940; read-out: hCB1 IC50 (CP displ)
T4 construct: (cDNA clone) CNR01L000
T4 sequence (P21554 whole entry): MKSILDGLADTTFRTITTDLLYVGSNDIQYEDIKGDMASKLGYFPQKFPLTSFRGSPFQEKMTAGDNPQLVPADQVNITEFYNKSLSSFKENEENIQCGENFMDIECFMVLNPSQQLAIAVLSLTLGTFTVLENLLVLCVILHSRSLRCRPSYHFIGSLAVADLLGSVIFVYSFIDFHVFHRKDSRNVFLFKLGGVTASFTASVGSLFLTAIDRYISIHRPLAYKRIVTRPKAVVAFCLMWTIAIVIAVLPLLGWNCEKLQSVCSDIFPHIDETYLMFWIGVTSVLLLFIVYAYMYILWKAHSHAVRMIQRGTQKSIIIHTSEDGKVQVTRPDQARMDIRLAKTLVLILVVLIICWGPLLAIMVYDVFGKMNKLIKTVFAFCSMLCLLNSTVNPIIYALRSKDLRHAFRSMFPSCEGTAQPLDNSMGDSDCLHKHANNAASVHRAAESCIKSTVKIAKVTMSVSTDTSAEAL
Description: as §1
Membranes were isolated from transfected cells as follows. Monolayers of cultured cells were washed twice with phosphate-buffered saline (PBS). Cells were scraped into 20 mM HEPES, pH 7.4, 10 mM EDTA containing complete cocktail protease inhibitors (Roche, Catalog #11 697 498 001) and were homogenized by an electric-powered mechanical probe homogenizer (Omni GLH; probe G7-195S) for 40 seconds at 7000 rpm. Homogenates were centrifuged 10 minutes at 1000×g at 4° C. The supernatant was collected and was centrifuged for 1 hour at 40,000×g. The supernatant was then decanted and the resulting pellet was re-suspended in 20 mM HEPES, pH 7.4, 5 mM MgCl2, 1 mM EDTA, 10% sucrose with complete cocktail protease inhibitors. Protein concentration of membrane suspensions were measured by Bradford Protein Assay using bovine serum albumin as the standard (BioRad catalog #500-0006). Protein concentrations of membrane suspensions were adjusted with the final buffer in the range of 5 to 10 mg/mL and were stored at −80° C. until further use.
Radioligand binding assays were performed by incubating membranes (2-10 μg protein) prepared from HEK-293 cells expressing recombinant human cannabinoid receptors, CB1 or CB2, at room temperature with 0.5 nM cannabinoid receptor agonist, [^3H]-CP 55,940 (Perkin Elmer, catalog #NET1051) in 0.2 mL of binding buffer (50 mM Tris-HCl, pH 7.5, 5 mM MgCl2, 2.5 mM EDTA) and 0.1% fatty acid free bovine serum albumin (Sigma Cat. #A0821) for 90 minutes. A rapid filtration technique using Millipore FB filter plates (Catalog #MADVNOB) and filtration apparatus (Millipore system Catalog MAVM0960R) with vacuum aspiration was used to harvest and rinse labeled membranes (8 times with 0.2 mL of chilled binding buffer). The radioactivity bound to the filters was counted with 0.05 mL of liquid scintillant (UltraGold MV, PerkinElmer catalog #6013159) in a scintillation counter (Perkin Elmer Microbeta instrument). Nonspecific binding was determined in the presence of unlabeled 1 μM CP 55,940 (Sigma Aldrich, catalog #C1112). Binding data were analyzed using GraphPad Prism (GraphPad Software, Inc. San Diego, Calif.).

human CB2 (hCB2) = target: T5, human CB2 (hCB2) (Homo sapiens, UniProt P34972); assay: 35S GTPγS binding assay, hCB2 agonist; format: biochemical; details: GTPγS agonist, HEK-293 membranes; read-out: hCB2 EC50 (GTPyS ag)
T5 construct: (cDNA clone) CNR0200000
T5 sequence (P34972 whole entry): as the sequence (P34972 whole entry) above
Method: cDNA expression clones for human CB1 (hCB1, Genbank Accession No. AY225225) and human CB2 (hCB2, Genbank Accession No. AY242132) expressed in vector pcDNA3.1+ were purchased from UMR cDNA Resource Center, Rolla, Mo. (Clone ID CNR01L000 for hCB1; CNR0200000 for hCB2).
as §4, §2
^35S GTPγS binding assays were performed by incubating recombinant cell membranes prepared above (5 μg) in the presence of scintillation proximity assay beads (SPA beads, Catalog #RPNQ0252 GE Healthcare, Buckinghamshire, England) in GTPγS binding buffer [50 mM HEPES (pH 7.4), 100 mM NaCl, 5 mM MgCl2, 0.001% saponin (Sigma catalog #S4521)] supplemented with 20 uM GDP (Sigma catalog #G7127) in the presence or absence of test compound. The reaction was carried out in 96-well microplates with 0.1 nM [^35S]GTPγS (specific activity=1250 Ci/mmol; Perkin Elmer catalog #NEG030X250UC) in a final volume of 100 uL. After a 90 min room temperature incubation, the reaction was analyzed using a scintillation counter (Perkin Elmer Microbeta instrument). Binding data were analyzed using GraphPad Prism.

T1 sequence (P21554 whole entry): as the sequence (P21554 whole entry) above

SMILES	hCB1 EC50 (cAMP ag, nM) (human CB1 receptors)	hCB2 EC50 (cAMP ag, nM) (human CB2 receptors)	IC50 ([1]; displacement of 0.5 nM [3H]-CP 55,940, read-out: hCB2 IC50 (CP displ)) [nM]	IC50 [2] [nM]	IC50 [1] [nM]	EC50 (human CB2 receptors) [nM]	EC50 (human CB2 (hCB2)) [nM]
COc1ccc(C(=O)c2cc3cc(C)n(CCN4CCNC4=O)c3s2)cc1 [Compound 61]	NS (NS means “Not Significant,” which means less than 30% agonist activity when compared to the positive control.)	NS (NS means “Not Significant,” which means less than 30% agonist activity when compared to the positive control.)	–	–	–	–	–
COc1ccc(C(=O)c2cc3cc(C)n(CCCNC(C)=O)c3s2)cc1 [Compound 63, N-(3-(2-(4-Methoxybenzoyl)-5-methyl-6H-thieno[2,3-b]pyrrol-6-yl)propyl)acetamide]	NS (NS means “Not Significant,” which means less than 30% agonist activity when compared to the positive control.)	NS (NS means “Not Significant,” which means less than 30% agonist activity when compared to the positive control.)	–	–	–	–	–
COc1ccc(C(=O)c2cc3cc(C)n(C(=O)N4CCOCC4)c3s2)cc1 [Compound 66, (2-(4-Methoxybenzoyl)-5-methyl-6H-thieno[2,3-b]pyrrol-6-yl)(morpholino)methanone]	NS (NS means “Not Significant,” which means less than 30% agonist activity when compared to the positive control.)	–	> 10000	> 10000	–	–	–
COc1ccc(C(=O)c2cc3cc(C)n(CCCNS(=O)(=O)C(F)(F)F)c3s2)cc1 [Compound 75, 1,1,1-Trifluoro-N-(3-(2-(4-methoxybenzoyl)-5-methyl-6H-thieno[2,3-b]pyrrol-6-yl)propyl)methanesulfonamide]	NS (NS means “Not Significant,” which means less than 30% agonist activity when compared to the positive control.)	NS (NS means “Not Significant,” which means less than 30% agonist activity when compared to the positive control.)	–	–	–	–	–
CCOc1ccc(C(=O)c2cc3cc(C)n(CCCNS(C)(=O)=O)c3s2)cc1 [Compound 94, N-(3-(2-(4-Ethoxybenzoyl)-5-methyl-6H-thieno[2,3-b]pyrrol-6-yl)propyl)methanesulfonamide]	NS (NS means “Not Significant,” which means less than 30% agonist activity when compared to the positive control.)	–	–	–	100 to 1000	100 to 1000	< 100
CCOc1ccc(C(=O)c2cc3cc(C)n(CCCNS(C)(=O)=O)c3s2)c(F)c1 [Compound 95, N-(3-(2-(4-Ethoxy-2-fluorobenzoyl)-5-methyl-6H-thieno[2,3-b]pyrrol-6-yl)propyl)methanesulfonamide]	NS (NS means “Not Significant,” which means less than 30% agonist activity when compared to the positive control.)	–	–	–	100 to 1000	< 100	100 to 1000
Cc1ccc(C(=O)c2cc3cc(C)n(CCCNS(C)(=O)=O)c3s2)c(F)c1 [Compound 97, N-(3-(2-(2-Fluoro-4-methylbenzoyl)-5-methyl-6H-thieno[2,3-b]pyrrol-6-yl)propyl)methanesulfonamide]	NS (NS means “Not Significant,” which means less than 30% agonist activity when compared to the positive control.)	–	–	–	100 to 1000	< 100	< 100
COc1ncc(C(=O)c2cc3cc(C)n(CCN4CCOCC4)c3s2)cn1 [Compound 118, (2-Methoxypyrimidin-5-yl)(5-methyl-6-(2-morpholinoethyl)-6H-thieno[2,3-b]pyrrol-2-yl)methanone]	NS (NS means “Not Significant,” which means less than 30% agonist activity when compared to the positive control.)	–	–	–	–	100 to 1000	100 to 1000

From US20130029970A1 (priority 2009, published 2013)
